Experimental data reported in EPA's ToxRefDB 2.

Legend:
dog [1] = details: Other (NonGuideline or Guideline Not Listed); beagle; Oral; Capsule; dose end: 3 day; group: cannot be grouped; systemic / in life observation / clinical signs / emesis
dog [2] = details: Sub-acute repeat dose toxicity, beagle, Oral, Capsule, dose end: 5 week, group: systemic
dog [3] = details: Subchronic oral toxicity in nonrodent, beagle, Feed, dose end: 14 week, group: systemic, systemic / organ weight / liver / absolute + systemic / organ weight / liver / relative to body weight
rat [4] = details: Subchronic oral toxicity in rodents, sprague dawley, Feed, dose end: 13 week, group: systemic, systemic / organ weight / uterus / relative to body weight
mouse = details: Combined chronic toxicity/carcinogenicity; other; Oral; Feed; dose end: 24 month; group: systemic; systemic / clinical chemistry / alanine aminotransferase (alt/sgpt) / alanine aminotransferase (alt/sgpt) + systemic / clinical chemistry / …
dog [5] = details: Subchronic oral toxicity in nonrodent, beagle, Feed, dose end: 90 day, group: systemic, systemic / clinical chemistry / alkaline phosphatase (alp/alk) / alkaline phosphatase (alp/alk) + systemic / in life observation / body …
rat [6] = details: Subchronic oral toxicity in rodents, sprague dawley, Feed, dose end: 13 week, group: systemic
rat [7] = details: Prenatal developmental toxicity study, other, Oral, Gavage/Intubation, dose end: 15 GD
rat [8] = details: Combined chronic toxicity/carcinogenicity; other; Oral; Feed; dose end: 2 year; group: systemic; systemic / clinical chemistry / alanine aminotransferase (alt/sgpt) / alanine aminotransferase (alt/sgpt) + systemic / clinical chemistry / …
rat [9] = details: Subchronic oral toxicity in rodents, wistar, Feed, dose end: 3 month, group: systemic
dog [10] = details: Chronic toxicity, beagle, Oral, Feed, dose end: 104 week, group: systemic
[11] = systemic / clinical chemistry / cholesterol / cholesterol + systemic / hematology / erythrocyte (rbc) count differential / erythrocyte (rbc…
[12] = systemic / pathology microscopic / testes / degeneration
[13] = systemic / clinical chemistry / fatty acids / non-esterified (free) fatty acids + systemic / clinical chemistry / triglycerides / …
[14] = group: developmental, developmental / developmental malformation / bone / full supernumerary
[15] = group: developmental, developmental / developmental malformation / bone / full supernumerary + developmental / developmental malformation / kidney / dilated renal…
[16] = group: maternal, systemic / in life observation / body weight / body weight gain + systemic / in life observation / clinical signs / alopecia + systemic / in…
[17] = systemic / clinical chemistry / glutamate dehydrogenase / glutamate dehydrogenase
[18] = systemic / clinical chemistry / glutamate dehydrogenase / glutamate dehydrogenase + systemic / clinical chemistry / cholesterol / …
[19] = systemic / clinical chemistry / aminopyrine-n-demethylase / aminopyrine-n-demethylase
[20] = systemic / clinical chemistry / aminopyrine-n-demethylase / aminopyrine-n-demethylase + systemic / clinical chemistry / cytochrome p450, nos…

Molecule NC(=O)c1nc(-c2cccc(-c3cc(F)ccc3OCC(F)(F)C(F)(F)F)c2)n[n-]1.O.[K+] [MK-274] has an LEL (dog [1]) of 240 mg/kg/day, an LOAEL (dog [1]) greater than 400 mg/kg/day and an NEL (dog [1]) of less than 240 mg/kg/day. The NOAEL (dog [1]) was no less than 400 mg/kg/day, the LOAEL (dog [2]; [11]) was greater than 450 mg/kg/day and the NOAEL (dog [2]; [11]) was no less than 450 mg/kg/day. It also gave an LEL (dog [2]; [12]) of 10 mg/kg/day and an NEL (dog [2]; [12]) of less than 10 mg/kg/day.

In the case of CCN(CC)C(=O)C(C)Oc1cccc2ccccc12 (stereo not drawn) [Napropamide], the LEL (dog [3]) is reported as 100 mg/kg/day, the LOAEL (dog [3]) is reported as 100 mg/kg/day and the NEL (dog [3]) is reported as 40 mg/kg/day. The NOAEL (dog [3]) was 40 mg/kg/day, the LEL (rat [4]) was 50 mg/kg/day and the LOAEL (rat [4]) was 50 mg/kg/day. It also gave an NEL (rat [4]) of 25 mg/kg/day and an NOAEL (rat [4]) of 25 mg/kg/day.

In the case of CC(C)(C)C(O)C(Oc1ccc(Cl)cc1)n1cncn1 (stereo not drawn) [Triadimenol], the LEL (mouse) is reported as 71.4 mg/kg/day, the LOAEL (mouse) is reported as 71.4 mg/kg/day and the NEL (mouse) is reported as 17.9 mg/kg/day. It also gave an NOAEL (mouse) of 17.9 mg/kg/day, an LEL (dog [5]) of 44.2 mg/kg/day and an LOAEL (dog [5]) of 44.2 mg/kg/day. The NEL (dog [5]) was less than 44.2 mg/kg/day, the NOAEL (dog [5]) was less than 44.2 mg/kg/day and the LOAEL (rat [6]; [13]) was 208 mg/kg/day. It also gave an NEL (rat [6]; [13]) of 8 mg/kg/day, an NOAEL (rat [6]; [13]) of 39.6 mg/kg/day and an LEL (rat [6]; systemic / organ weight / liver / absolute + systemic / organ weight / liver / relative to body weight + systemic / pathology microscopic / …) of 39.6 mg/kg/day. It also gave an LEL (rat [7]; [14]) of 60 mg/kg/day, an LOAEL (rat [7]; [14]) of 60 mg/kg/day and an NEL (rat [7]; [15]) of 25 mg/kg/day. It also gave an NOAEL (rat [7]; [15]) of 25 mg/kg/day, an LOAEL (rat [7]; group: maternal, systemic / in life observation / body weight / body weight gain) of 15 mg/kg/day and an NEL (rat [7]; [16]) of 5 mg/kg/day. It also gave an NOAEL (rat [7]; [16]) of 5 mg/kg/day, an LEL (rat [7]; group: maternal, systemic / in life observation / body weight / body weight gain + systemic / in life observation / food consumption / food consumption) of 15 mg/kg/day and an LEL (rat [8]) of 25 mg/kg/day. For the same molecule, the LOAEL (rat [8]) was 25 mg/kg/day, the NEL (rat [8]) was 6.25 mg/kg/day and the NOAEL (rat [8]) was 6.25 mg/kg/day. The LEL (rat [9]; [17]) was 30 mg/kg/day, the LOAEL (rat [9]; [17]) was 30 mg/kg/day and the NEL (rat [9]; [18]) was 7.5 mg/kg/day. For the same molecule, the NOAEL (rat [9]; [18]) was 7.5 mg/kg/day, the LEL (dog [10]; [19]) was 211 mg/kg/day and the LOAEL (dog [10]; [19]) was 211 mg/kg/day. It also gave an NEL (dog [10]; [20]) of 56 mg/kg/day and an NOAEL (dog [10]; [20]) of 56 mg/kg/day.
